Measured values: BindingDB's records for doi:10.7270/Q2CF9NKD (Burnham Center For Chemical Genomics, 2010)

What follows are molecules tested against Intestinal-type alkaline phosphatase (Homo sapiens, UniProt P09923) (assay: human IAP activators, dose response, biochemical, luminescent, uHTS hits, set 2 (AID 488817)).
Chain of Intestinal-type alkaline phosphatase (P09923 whole entry): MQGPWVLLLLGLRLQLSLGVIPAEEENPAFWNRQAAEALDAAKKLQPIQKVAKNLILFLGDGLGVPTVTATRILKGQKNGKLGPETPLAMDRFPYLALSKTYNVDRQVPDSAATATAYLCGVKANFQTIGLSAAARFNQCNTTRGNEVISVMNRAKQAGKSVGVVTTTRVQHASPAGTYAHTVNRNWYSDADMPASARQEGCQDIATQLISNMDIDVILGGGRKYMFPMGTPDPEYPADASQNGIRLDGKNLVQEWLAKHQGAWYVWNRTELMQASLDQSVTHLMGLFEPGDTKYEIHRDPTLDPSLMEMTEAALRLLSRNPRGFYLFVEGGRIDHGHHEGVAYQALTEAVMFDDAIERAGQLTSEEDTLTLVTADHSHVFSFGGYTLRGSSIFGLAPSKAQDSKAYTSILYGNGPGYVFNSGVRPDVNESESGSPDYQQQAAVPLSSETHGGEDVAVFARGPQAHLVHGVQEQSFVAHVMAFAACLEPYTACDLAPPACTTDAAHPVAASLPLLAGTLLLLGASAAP

| EC50 [µM] | Compound |
| --- | --- |
| 8.77 | O=Nc1[nH]c(=O)c(CC(=O)c2ccccc2)nc1NO [SMR000539633] |
| 12.4 | O=C(Nn1c(O)csc1=S)C(=O)Nn1c(O)csc1=S [SMR000349781] |
| 31 | O=c1c2ccccc2nc(N=NCc2c(O)ccc3ccccc23)n1O [SMR000145705] |

Further lines, the molecule ahead of its results:

| Compound | EC50 [µM] |
| --- | --- |
| Cc1c(C(=O)NN=Cc2ccc(O)cc2O)[nH][nH]c1=O | 11.3 |
| COc1cccc(C=NNC(=O)c2[nH][nH]c(=O)c2C)c1O [N'-[(E)-(5-methoxy-6-oxidanylidene-cyclohexa-2,4-dien-1-ylidene)methyl]-4-methyl-5-oxidanylidene-1,4-dihydropyrazole-3-carbohydrazide] | 9.07 |
| CCc1ccc(CN=Nc2ncnc3nc[nH]c23)cc1 [MLS000419199] | 12.5 |
| C=c1[nH]n(-c2nc3ccccc3[nH]2)c(=O)c1=CN(C)C [(4E)-2-(1H-benzimidazol-2-yl)-4-(dimethylaminomethylidene)-5-methyl-pyrazol-3-one] | 23.2 |
| Cc1cc(Br)ccc1SCC(=O)OCC(=O)C(C#N)c1nc2ccccc2[nH]1 (stereo not given) [2-[(4-bromo-2-methylphenyl)thio]acetic acid [3-cyano-3-(1,3-dihydrobenzimidazol-2-ylidene)-2-oxopropyl] ester] | 27.5 |
| CCOC(=O)c1c(C)[nH]c(C(=O)N/N=C/C2C=C([N+](=O)[O-])C=CC2=O)c1C (stereo not given) [ethyl 2,4-dimethyl-5-[[[(E)-(3-nitro-6-oxocyclohexa-2,4-dien-1-ylidene)methyl]amino]carbamoyl]-1H-pyrrole-3-carboxylate] | 11.4 |
| Cn1c(C(C#N)C(=O)c2ccc(Br)s2)nc2ccccc21 (stereo not given) [MLS001167394] | 60 |
